These are literature values, as cited in patent publication US20180369129A1, “MICROBIOME-COMPATIBLE COSMETICS” (AOBIOME LLC, priority 2015, published 2018).

In series [1] the test system is NOS. Conditions: rat pancreatic islets; through the induction of iNOS.
The subject of series [2] is NOS. The settings on record: reduction in basal NO levels.

With `COC(=O)[C@@H](N)CCCNC(=N)N[N+](=O)[O-]` [L-NAME], the “total NO production” value in the series on NOS [1] is listed as “increases total NO production”. Also, in the series on NOS [2], the “effect of chronic inhibition of NOS on heart and kidneys” value is “generalized fibrosis of the heart and kidneys”.
